For data set [1], the system named is activated hepatic stellate cell line LX-2. Briefly: EGFP mRNA delivery and transfection screening by FACS. It is filed as cell-based. Conditions: LX-2 cells; EGFP mRNA lipid nanoparticles, 250 ng mRNA per well. How it is done: Fourteen types of lipid nanoparticles prepared were screened with activated hepatic stellate cell line LX-2 (Merck (Germany) and hepatocyte line FL83B (ATCC, USA).
Twenty-four hours prior to the experiment, cells were seeded in 6-well plates at 1×10^5 cells/well and incubated at 37° C. The medium was aspirated and the cells were washed with (−) PBS and then treated with lipid nanoparticles encapsulating EGFP mRNA (TriLink BioTechnologies, USA) in 1.5 ml of growth medium for 24 hours. The amount of mRNA per well was 250 ng. Cells were then washed with (−) PBS and incubated in fresh medium for an additional 21 hours. The median fluorescence intensity of EGFP and the percentage of transfected cells were evaluated by fluorescence activated cell sorting (FACS) using a flow cytometer (Cytoflex, Beckman Coulter, USA).

The subject of a further data set is SMO mRNA. Briefly: In vivo SMO mRNA knockdown in liver tissue by qRT-PCR. On the set-up: species or system mice. Conditions: 24 hours. How it is done: TAA-induced liver fibrosis model mice were prepared in the same manner as in Example 1, and SMO-siRNA-encapsulated lipid nanoparticles were intravenously administered to the mice via the tail vein so that the amount of RNA per kg of body weight was 0.5 mg/kg. 24 hours after the administration, the mouse livers were collected. The ratio of the amount of SMO mRNA to the amount of GAPDH mRNA in the liver tissue was confirmed by qRT-PCR. The SMO gene is expressed only in hepatic stellate cells in the liver.
Next, a lipid composition containing CL15H6 and SMO-siRNA were mixed in different ratios to prepare lipid nanoparticles with different nitrogen/phosphate (N/P) ratios. Specifically, lipid nanoparticles were prepared with N/P ratios of 0.5, 1, 2, 4, 8, 12, 16, and 20. The prepared lipid nanoparticles were intravenously administered to mice with liver fibrosis so that the amount of RNA per kg of body weight was 0.5 mg/kg, and the ratio of the amount of SMO mRNA to the amount of GAPDH mRNA in the liver tissue was confirmed 24 hours later.
Next, the relationship between the dosage amount of SMO-siRNA and the ratio of the amount of SMO mRNA to the amount of GAPDH mRNA in the liver tissue was examined. For comparison, the relationship between the dosage amount of control siRNA (siCtrl) and the ratio of SMO mRNA to GAPDH mRNA in hepatic stellate cells was also examined.
Lipid nanoparticles encapsulating a mixture of the above SMO-siRNA and TGFβ1-siRNA at a ratio of 1:1 were prepared by using CL15H6, the above SMO-siRNA (SEQ ID NOs: 1 and 2) targeting the mRNA of the SMO gene and the TGFβ1-siRNA (SEQ ID NOS: 3 and 4) targeting the mRNA of the TGFβ1 gene and having the sequence shown in Table 4 below. The prepared lipid nanoparticles were intravenously administered to mice with liver fibrosis so that each of the amounts of SMO-siRNA and of TGFβ1-siRNA per kg of body weight was 0.25 mg/kg, and 24 hours later, the ratios of the amounts of SMO mRNA and of TGFβ1 mRNA to the amount of GAPDH mRNA in the liver tissue was confirmed.

Data set [2] in a line: Average particle size, PDI, zeta potential (dynamic light scattering) and RNA encapsulation efficiency (RiboGreen) of lipid nanoparticles. The settings on record: CL15H6 lipid nanoparticles with SMO-siRNA. The data set is classed as physicochemical. As to the method:
The average particle size, particle size distribution, and zeta potential of the lipid nanoparticles were measured using a Zetasizer Nano ZS (Malvern Instruments Ltd, UK) by dynamic light scattering and the form of lipid nanoparticle was measured using a transmission electron-microscope as described in NPL 12. The efficiency of mRNA encapsulation was estimated by RiboGreen fluorometry as described in NPL 13. Although the respective values vary depending on the type of pH-sensitive cationic lipid, the composition of the lipids constituting the lipid nanoparticles, the preparation conditions of the lipid nanoparticles, and the like, the average particle size of the lipid nanoparticles was in the range of 80 to 350 nm, the PDI was in the range of 0.05 to 0.4, the zeta potential was in the range of −16 to +5 mV, and the efficiency of mRNA encapsulation was 75 to 95%. • [NPL 12] Mahmoud A. Younis, et al., “A Multifunctional Lipid-Based Nanodevice for the Highly Specific Codelivery of Sorafenib and Midkine siRNA to Hepatic Cancer Cells”, Molecular Pharmaceutics, Vol. 16, pp. 4031-4044 • [NPL 13] Mahmoud M. Abd Elwakil, et al., “Engineered &-decalactone lipomers bypass the liver to selectively in vivo deliver mRNA to the lungs without targeting ligands”, Materials Horizons, Vol. 8, pp. 2251-2259
The average particle size, particle size distribution, and zeta potential of the lipid nanoparticles were measured in the same manner as in Example 1 to estimate the efficiency of SMO-siRNA encapsulation. The relationship between the flow rate ratio of the aqueous phase to the organic phase, the average particle size, particle size distribution, zeta potential, and SMO-siRNA encapsulation efficiency of the lipid nanoparticles prepared at the same flow rate ratio when CL15H6 was used as the pH-sensitive cationic lipid is shown in Table 3 below. In the subsequent experiments, lipid nanoparticles were prepared at a ratio of 4:1 (aqueous phase: organic phase), which provided the highest encapsulation efficiency, the smallest average particle size, and the smallest PDI.

Data set [3] is described as follows: Apparent pKa of lipid nanoparticles using TNS. The settings on record: lipid nanoparticles encapsulating mRNA prepared with the lipid, 37° C.
Description: The apparent acid dissociation constant pKa of the lipid membrane of a lipid nanoparticle is measured in a buffer at 37° C. using 6-p-toluidino-2-naphthalenesulfonic acid (TNS) (see Examples).
The apparent pKa of the lipid nanoparticles was also measured using 6-p-toluidino-2-naphthalenesulfonic acid (TNS) (see NPL 14). Specifically, in each well of a 96-well plate, lipid (0.5 mM) of the lipid nanoparticles and TNS (0.6 mM) were added to 200 μL of a buffer solution and mixed. The buffer solution was 20 mM citrate buffer (pH3.50 to 5.50), 20 mM sodium phosphate buffer (pH6.00 to 8.00), or 20 mM Tris-HCl buffer (pH8.00 to 9.00), and each buffer solution contained 150 mM NaCl. At this time, the final concentration of lipid was adjusted to 30 µM and the final concentration of TNS was adjusted to 6 μM. Fluorescence (excitation wavelength 321 nm, fluorescence wavelength 447 nm) was then measured at 37° C. using a plate reader (Enspire 2300 multilabel reader, Perkin Elmer). The pKa was defined as the pH value showing 50% of the maximum fluorescence intensity. • [NPL 14]
Where [4] appears, read: aqueous phase:organic phase 2:1.
Where [5] appears, read: aqueous phase:organic phase 3:1.
Where [6] appears, read: aqueous phase:organic phase 4:1.
The mark [7] stands for this setting: aqueous phase:organic phase 5:1.
[8] abbreviates: aqueous phase:organic phase 9:1.

The values below come from US20260021046A1, “LIPID NANOPARTICLE AND PHARMACEUTICAL COMPOSITION” (NATIONAL UNIVERSITY CORPORATION HOKKAIDO UNIVERSITY, priority 2022, published 2026).

On to `CCCCCCCC/C=C\CCCCCCCC(=O)OCCCCCCC(O)(CCCCCCOC(=O)CCCCCCC/C=C\CCCCCCCC)CCCCOC(=O)C1CCN(C)CC1` [CL15H6, 7-hydroxy-7-(4-((1-methylpiperidine-4-carbonyl)oxy)butyl)tridecane-1,13-diyl dioleate], for which the “mRNA delivery efficiency (median fluorescence intensity of EGFP)” value (from here on “mRNA delivery efficiency”) in data set [1] is reported as “high”. The “amount of SMO mRNA (ratio to GAPDH mRNA) in liver tissue” value with SMO mRNA (CL15H6 SMO-siRNA lipid nanoparticles, 0.5 mg/kg iv, N/P ratio 4 among 0.5 to 20) is recorded as “lowest”; with SMO mRNA (SMO-siRNA lipid nanoparticles, 0.5 mg/kg RNA iv, versus HEPES buffer control), “significantly reduced”. Besides, the Average particle size in data set [2] (setting [4]) is 135.72 nm; in data set [2] (setting [5]) it was 72.5 nm; in data set [2] (setting [6]) it was 53.45 nm; in data set [2] (setting [7]), 57.12 nm; in data set [2] (setting [8]), 58.53 nm. The Encapsulation efficiency in data set [2] (setting [4]) is 66.12%; in data set [2] (setting [5]) it was 92.33%; in data set [2] (setting [6]), 94.06%; in data set [2] (setting [7]), 89.19%; in data set [2] (setting [8]) it was 75.55%. For the same compound, the PDI came out at 0.280 in data set [2] (setting [4]); 0.192 in data set [2] (setting [5]); 0.093 in data set [2] (setting [6]); 0.169 in data set [2] (setting [7]); 0.217 in data set [2] (setting [8]). In addition, the Zeta potential is on record as −6.81 mV in data set [2] (setting [4]); −3.75 mV in data set [2] (setting [5]); −3.35 mV in data set [2] (setting [6]); −5.08 mV in data set [2] (setting [7]); −8.2 mV in data set [2] (setting [8]).

On to `CCCCCCCCC(CCCCCC)C(=O)OCCCCCCC(O)(CCCCCCOC(=O)C(CCCCCC)CCCCCCCC)CCCCN(CCC)CCC` (stereo not shown) [CL4F6], for which, in data set [3], the “Apparent pKa” value amounted to 6.00.

As to `CCCCCCCCC(CCCCCC)C(=O)OCCCCCCC(O)(CCCCCCOC(=O)C(CCCCCC)CCCCCCCC)CCCCOC(=O)C1CCN(C)CC1` (stereo not shown) [CL15F6, 7-hydroxy-7-(4-((1-methylpiperidine-4-carbonyl)oxy)butyl)tridecane-1,13-diyl bis(2-hexyldecanoate)], the “mRNA delivery efficiency” value in data set [1] is listed as “high”.

As to `CCCCCCCCCCCCCCCC(=O)OCCCCCCC(O)(CCCCCCOC(=O)CCCCCCCCCCCCCCC)CCCCN(C)C` [CL1D6, 7-(4-(dimethylamino)butyl)-7-hydroxytridecane-1,13-diyl dipalmitate], the “mRNA delivery efficiency” value in data set [1] is “high”.

In the case of `CCCCCCCC/C=C\CCCCCCCC(=O)OCCCCCCC(O)(CCCCCCOC(=O)CCCCCCC/C=C\CCCCCCCC)CCCCN(CCC)CCC` [CL4H6], in data set [3], the “Apparent pKa” value is listed as 6.25.

As to `CCCCCCCC/C=C\CCCCCCCC(=O)OCCCCCCC(O)(CCCCCCOC(=O)CCCCCCC/C=C\CCCCCCCC)CCCCN(C)C` [CL1H6, 7-(4-(dimethylamino)butyl)-7-hydroxytridecane-1,13-diyl dioleate], the “mRNA delivery efficiency” value in data set [1] is listed as “high”.
